Measured values from US4920128A, “Pyrazolo[3,4-b]quinolines and their use as antiviral agents” (Sterling Drug Inc., priority 1988, dated 1990).
In brackets after ≈: the same amount, converted by molar mass.

How the values were obtained:
[1] = system: phenylephrine-contracted aortic ring preparation; test: vasodilator activity in phenylephrine-contracted aortic ring preparation from the spontaneously hypertensive rat (SHR); settings: 50% of maximal relaxation induced by papaverine (200 μM), contracted with 1 μM phenylephrine
Method: Aortic ring preparations from SHR are suspended in buffered physiological saline and induced to contract by addition of 1 μM phenylephrine, a selective α1 -adrenergic agonist. When a sustained contraction is obtained, the test compound is added cumulatively in ascending concentrations beginning at 1 μM. At the end of the addition of the test compound, a 200 μM concentration of papaverine is added to the organ bath for induction of a 100% vasodilator response. Percent relaxation by the test compound is expressed as a percent of maximal relaxation induced by papaverine. […] By this procedure, EC50 values for certain compounds of the invention were determined with the following results: […]

[2] = system: herpes simplex virus type 2 (HSV-2); test: HSV-2 plaque-reduction on mouse embryo fibroblast monolayers; type: cell-based; settings: concentration which inhibited the number of plaques by 50%, interpolated, HSV-2 (Curtis strain), ~80 pfu, 2 days at 37° C.; for IC50: Human alphaherpesvirus 2, Fibroblast, 48 h, read-out: MIC
Method: The activity of the compounds of the invention against herpes simplex virus type 2 (HSV-2) was determined by measuring plaque-reduction activity on mouse embryo fibroblast monolayers. Two-day-old monolayers of Balb/c or ICR mouse embryo fibroblasts (MEF) were infected with approximately 80 pfu (plaque forming units) of HSV-2 (Curtis strain) in the presence of various concentrations of the test compounds. After a 1 hour absorption period at 37° C. and 2% CO2, the inoculum was removed and an overlay containing equal parts of 2X MS medium supplemented with 10% fetal calf serum (FSC) and 1% molten Seakem agarose was added to cell monolayers. Both the inocula and the overlay mixtures contained 1:200 dilutions of the test compound made from stock dilutions in dimethylsulfoxide. After incubation at 37° C. and 2% CO2 for 2 days, the monolayers were fixed with 5% glutaraldehyde and stained with 0.25% aqueous crystal violet. The plaques were quantitated by visual inspection. The minimum inhibitory concentration (MIC) for a compound was defined as the concentration in micrograms per milliliter (μg/ml) which inhibited the number of plaques by 50%. The MIC was calculated by interpolation.

Row | Compound | EC50 [1] | IC50 [2] | MIC [2]
1 | CCNC(=O)Cn1nc(N)c2cc3ccc(OC)cc3nc21 [Example 28, 3-Amino-7-methoxy-N-ethyl-1H-pyrazolo[3,4-b]quinolin-1-acetamide] | 70 µM | – | –
2 | CNCCn1nc(Br)c2cc3ccc(OC)cc3nc21 [Example 41, 3-Bromo-7-methoxy-1-(2-methylaminoethyl)-1H-pyrazolo[3,4-b]quinoline] | – | 0.72 µg/mL (≈ 2.15 µM) | –
3 | Nc1n[nH]c2nc3cc(O)ccc3cc12 [Example 13, 3-Amino-1H-pyrazolo[3,4-b]quinolin-7-ol] | 87 µM | 13 µg/mL (≈ 64.9 µM) | –
4 | CCOC(=O)Cn1nc(N)c2cc3ccc(OC)cc3nc21 [Example 19, Ethyl 3-amino-7-methoxy-1H-pyrazolo[3,4-b]quinolin-1-acetate] | 71 µM | 12 µg/mL (≈ 40 µM) | –
5 | CCN(CC)CCn1nc(N)c2cc3ccc(OC)cc3nc21 [Example 22, 1-[2-(Diethylamino)ethyl]-7-methoxy-1H-pyrazolo[3,4-b]quinolin-3-amine] | 22 µM | 23 µg/mL (≈ 73.4 µM) | –
6 | CNC(C)Cn1nc(Cl)c2cc3ccc(OC)cc3nc21 (stereo not drawn) [Example 46, 3-Chloro-1-[2-(methylamino)-2-methylethyl]-7-methoxy-1H-pyrazolo[3,4-b]quinoline] | – | 3.7 µg/mL (≈ 12.1 µM) | –
7 | COc1ccc2nc3c(cc2c1)c(N)nn3CCCN(C)C [Example 17, 1-[3-(Dimethylamino)propyl]-6-methoxy-1H-pyrazolo[3,4-b]quinolin-3-amine] | 91 µM | 78 µg/mL (≈ 261 µM) | –
8 | COc1ccc2nc3c(cc2c1)c(C#N)nn3C [Example 33, 6-Methoxy-1-methyl-1H-pyrazolo[3,4-b]quinoline-3-carbonitrile] | – | 42 µg/mL (≈ 176 µM) | –
9 | COc1cc2cc3c(N)n[nH]c3nc2cc1OC [4(d), 6,7-Dimethoxy-1H-pyrazolo[3,4-b]quinolin-3-amine] | 18 µM | – | –
10 | CNCCn1nc(N)c2cc3cc(OC)ccc3nc21 [Example 27, 1-[2-(Methylamino)ethyl]-6-methoxy-1H-pyrazolo[3,4-b]quinolin-3-amine] | – | 13 µg/mL (≈ 47.9 µM) | –
11 | CCn1nc(N)c2cc3ccc(OC)cc3nc21 [Example 10, 1-Ethyl-7-methoxy-1H-pyrazolo[3,4-b]quinolin-3-amine] | – | 7.8 µg/mL (≈ 32.2 µM) | –
12 | 7-Methoxy-1-methyl-1H-pyrazolo[3,4-b]quinoline-3-methanamine [Example 34] | – | – | 15 µg/mL
13 | COc1ccc2nc3c(cc2c1)c(C(N)=O)nn3C [Example 35, 6-Methoxy-1-methyl-1H-pyrazolo[3,4-b]quinoline-3-carboxamide] | 9 µM | 7 µg/mL (≈ 27.3 µM) | –
14 | CCN(CC)CCn1nc(N)c2cc3cc(OC)ccc3nc21 [Example 16, 1-[2-(Diethylamino)ethyl]-6-methoxy-1H-pyrazolo[3,4-b]quinolin-3-amine] | 40 µM | – | –
15 | COc1ccc2cc3c(N)nn(CCN4CCOCC4)c3nc2c1 [Example 15, 7-Methoxy-1-[2-(4-morpholinyl)ethyl]-1H-pyrazolo[3,4-b]quinolin-3-amine] | – | 44 µg/mL (≈ 134 µM) | –
16 | COc1ccc2cc3c(N)nn(CN(C)C)c3nc2c1 [Example 30, 1-[(Dimethylamino)methyl]-7-methoxy-1H-pyrazolo[3,4-b]quinolin-3-amine] | – | 2.6 µg/mL (≈ 9.58 µM) | –
17 | COc1ccc2nc3c(cc2c1)c(Br)nn3CCN(C)C [Example 36, 3-Bromo-1-[2-(dimethylamino)ethyl]-6-methoxy-1H-pyrazolo[3,4-b]quinoline] | – | 4.3 µg/mL (≈ 12.3 µM) | –
18 | CN(C)CCn1nc(N)c2cc3ccc(O)cc3nc21 [Example 24, 3-Amino-1-[2-(dimethylamino)ethyl]-1H-pyrazolo[3,4-b]quinolin-7-ol] | – | 13 µg/mL (≈ 47.9 µM) | –
19 | COc1ccc2cc3c(C#N)nn(CCN(C)C)c3nc2c1 [Example 38, 1[2-(Dimethylamino)ethyl]-7-methoxy-1H-pyrazolo[3,4-b]quinoline-3-carbonitrile] | – | 0.82 µg/mL (≈ 2.78 µM) | –
20 | COc1ccc2cc3c(Cl)nn(CC(C)N(C)C)c3nc2c1 (stereo not drawn) [Example 45, 3-Chloro-1-[2-(dimethylamino)-2-methylethyl]-7-methoxy-1H-pyrazolo[3,4-b]quinoline] | – | 0.88 µg/mL (≈ 2.76 µM) | –

Row | Compound | EC50 [1] | IC50 [2] | MIC [2]
21 | COc1ccc2cc3c(Br)nn(CCN(C)C)c3nc2c1 [Example 37, 3-Bromo-1-[2-(dimethylamino)ethyl]-7-methoxy-1H-pyrazolo[3,4-b]quinoline] | – | 0.97 µg/mL (≈ 2.78 µM) | –
22 | COc1ccc2cc3c(N)nn(C)c3nc2c1 [Example 7, 7-Methoxy-1-methyl-1H-pyrazolo[3,4-b]quinolin-3-amine] | 43 µM | 6.4 µg/mL (≈ 28 µM) | –
23 | COc1ccc2nc3[nH]nc(N)c3cc2c1 [1(d), 6-Methoxy-1H-pyrazolo[3,4-b]quinolin-3-amine] | 31 µM | 1.5 µg/mL (≈ 7 µM) | –
24 | Nc1n[nH]c2nc3ccccc3cc12 [2(d), 1H-Pyrazolo[3,4-b]quinolin-3-amine] | 26 µM | – | –
25 | COc1cccc2nc3[nH]nc(N)c3cc12 [6(d), 5-Methoxy-1H-pyrazolo[3,4-b]quinolin-3-amine] | – | 13 µg/mL (≈ 60.7 µM) | –
26 | COC(=O)c1nn(CCN(C)C)c2nc3cc(OC)ccc3cc12 [Example 39, Methyl 1-[2-(dimethylamino)ethyl]-7-methoxy-1H-pyrazolo[3,4-b]quinoline-3-carboxylate] | – | 2.3 µg/mL (≈ 7 µM) | –
27 | COc1ccc2nc3c(cc2c1)c(N)nn3CC(=O)N(C)C [Example 25, 3-Amino-6-methoxy-N,N-dimethyl-1H-pyrazolo[3,4-b]quinolin-1-acetamide] | 116 µM | – | –
28 | COc1ccc2cc3c(N)nn(CC(C)N(C)C)c3nc2c1 (stereo not drawn) [Example 44a, 1-[2-(dimethylamino)-2-methylethyl]-7-methoxy-1H-pyrazolo[3,4-b]quinolin-3-amine] | – | 11 µg/mL (≈ 36.7 µM) | –
29 | Nc1n[nH]c2nc3ccc(O)cc3cc12 [Example 14, 3-Amino-1H-pyrazolo[3,4-b]quinolin-6-ol] | 25 µM | – | –
30 | Cn1nc(N)c2cc3ccc(O)cc3nc21 [Example 12, 3-Amino-1-methyl-1H-pyrazolo[3,4-b]quinolin-7-ol] | 57 µM | – | –
31 | COc1ccc2cc3c(N)nn(-c4ccccc4)c3nc2c1 [Example 11, 7-Methoxy-1-phenyl-1H-pyrazolo[3,4-b]quinolin-3-amine] | – | 19 µg/mL (≈ 65.4 µM) | –
32 | CCNCCn1nc(N)c2cc3ccc(OC)cc3nc21 [Example 29, 1-[2-(Ethylamino)ethyl]-7-methoxy-1H-pyrazolo[3,4-b]quinolin-3-amine] | – | 6.7 µg/mL (≈ 23.5 µM) | –
33 | COc1ccc2cc3c(Cl)nn(CCN(C)C)c3nc2c1 [Example 40, 3-Chloro-1-(2-dimethylaminoethyl)-7-methoxy-1H-pyrazolo[3,4-b]quinoline] | – | 0.67 µg/mL (≈ 2.2 µM) | –
34 | CCOc1ccc2cc3c(N)n[nH]c3nc2c1 [5(d), 7-Ethoxy-1H-pyrazolo[3,4-b]quinolin-3-amine] | – | 17 µg/mL (≈ 74.5 µM) | –
35 | COc1ccc2cc3c(N)n[nH]c3nc2c1 [3(d), 7-Methoxy-1H-pyrazolo[3,4-b]quinolin-3-amine] | 21 µM | 4.3 µg/mL (≈ 20.1 µM) | –
36 | CCCn1nc(N)c2cc3ccc(OC)cc3nc21 [Example 9, 7-Methoxy-1H-1-propylpyrazolo[3,4-b]quinolin-3-amine] | – | 5.3 µg/mL (≈ 20.7 µM) | –
37 | CCN(CC)CCn1nc(N)c2cc3ccc(O)cc3nc21 [Example 23] | 33 µM | 39 µg/mL (≈ 130 µM) | –
38 | COc1ccc2cc3c(N)nn(CCN(C)C)c3nc2c1 [Example 18, 1-[2-(Dimethylamino)ethyl]-7-methoxy-1H-pyrazolo[3,4-b]quinolin-3-amine] | 25 µM | 12 µg/mL (≈ 42.1 µM) | –
39 | COc1ccc2nc3c(cc2c1)c(N)nn3CCN(C)C [Example 21, 1-[2-(Dimethylamino)ethyl]-6-methoxy-1H-pyrazolo[3,4-b]quinolin-3-amine] | 38 µM | 24 µg/mL (≈ 84.1 µM) | –
40 | COc1ccc2nc3c(cc2c1)c(Cl)nn3C [Example 31, 3-Chloro-6-methoxy-1-methyl-1H-pyrazolo[3,4-b]quinoline] | – | 18 µg/mL (≈ 72.7 µM) | –
